{"source": "patent US9737493B2", "about": "“Compositions and methods for modulating DNMT1 inhibitor activity” (University of Louisville Research Foundation, Inc., priority 2012, dated 2017)", "key": {"DU145 cells": {"tested_on": "DU145 cells", "assay": "MTT cell proliferation assay", "format": "cell-based", "conditions": "Homo sapiens, DU-145; DU145, 72 h", "protocol": "Cell Proliferation Assays. The antiproliferative activity of XB05 was tested using a previously published 3-(4,5-dimethylthiazol-2-yl)-2,5-diphenyltetrazolium bromide (MTT) assay protocol (Girvan et al., “AGRO100 inhibits activation of nuclear factor-kappaB (NF-kappaB) by forming a complex with NF-kappaB essential modulator (NEMO) and nucleolin” Molecular Cancer Therapeutics (2006) Vol. 5, No. 7, pp. 1790-1799). Briefly, cells were seeded in quadruplicate wells in 96-well plates and allowed to adhere overnight. […] Plates were incubated with XB05 for 72 h, during which the cell culture medium was not changed. Cell viability was determined and the background corresponding to medium alone (no cells) was subtracted. Data were analyzed as described in the Brief Description of the Drawings.\nXB05 has Cancer-Selective Antiproliferative Activity. XB05 was tested to determine its antiproliferative activity in a variety of human cell lines that are derived from malignant tissues or from non-malignant (immortalized but not transformed) cells and listed in FIG. 1B. As described in Materials and Methods, cells were treated with varying concentrations of XB05 for 72 h and evaluated using the MTT cell proliferation assay."}, "Hs27 cells [1]": {"tested_on": "Hs27 cells", "assay": "GSH-Glo reduced glutathione content assay", "format": "cell-based, human", "conditions": "Hs27, 1 μM XB05, 24 h", "protocol": "(§1) FIG. 8: XB05 Modulates Cellular Stress Responses. (A) A luminescence-based assay for reduced glutathione (GSH) content in cells treated 24 h with XB05 (1 μM for U937 and Hs27, or 2 μM for A549), in the absence or presence of 5 mM GSH. Some cells were treated with buthionine sulfoximine (BSO, 200 μM) plus diethyl maleate (DEM, 1 mM) for 3 h as a positive control for GSH depletion. Bar graph indicates mean+/−SEM from three independent experiments. […] (C) Western blot for Nrf2 in nuclear extracts from cells treated as in part A for either 8 h or 24 h. Membranes were stripped and reprobed for Ku-70 as a loading control. (D) Western blot for phospho-eIF2α (Ser51), total eIF2-α, BiP/Grp78, and GAPDH (loading control) in whole cell extracts from cell lines treated as indicated for 24 h with concentrations of XB05 described in part A. Thapsigargin (TG, 2 μM) was used as a positive control for induction of endoplasmic reticulum (ER) stress.\n(§2) Reduced Glutathione Content Analyses. After treatment as indicated in the figures and in the Brief Description of the Drawings, cells were harvested as described, counted and dispensed at a density of 10,000 cells/well in triplicate on a 96-well white, opaque bioluminescence plate (Corning). Cellular content of reduced glutathione (GSH) was analyzed using the GSH-Glo® Glutathione Assay Kit (Promega) according to the manufacturer's instructions. The chemiluminescent signal was quantified on a Biotek Synergy HT plate-reader (Biotek, Winooski, Vt.) using an integration time of 1 s/well."}, "A549 cells [2]": {"tested_on": "A549 cells", "assay": "GSH-Glo reduced glutathione content assay", "format": "cell-based, human", "conditions": "A549, 2 μM XB05, 24 h", "protocol": "as §1, §2"}, "U937 cells [3]": {"tested_on": "U937 cells", "assay": "GSH-Glo reduced glutathione content assay", "format": "cell-based, human", "conditions": "U937, 1 μM XB05, 24 h", "protocol": "as §1, §2"}, "Hs27 cells [4]": {"tested_on": "Hs27 cells", "assay": "Carboxy-H2DCFDA ROS detection, flow cytometry", "format": "cell-based, human", "conditions": "Hs27, 1 μM, 8 h", "protocol": "(§3) FIG. 7: XB05 Induces ROS. (A) Cells were treated with either vehicle, tert-butyl hydrogen peroxide (TBHP, 100 μM, 3 h) or XB05 (8 h with 1 μM for U937 and Hs27, or 2 μM for A549), then stained with carboxy-H2DCFDA and PI for analysis by flow cytometry. Histograms illustrate representative data and bar graphs show the increase (over vehicle control) in the percentage of PI-negative (viable) cells with positive DCF fluorescence in each sample. Bars represent the mean+/−SEM from three independent experiments. […] (B) Cells were treated with XB05 as described in part A. As a positive control for superoxide production, cells were treated with Antimycin A (10 μM) for 1 h. Cells were harvested and subjected to MitoSOX™ Red staining for analysis by flow cytometry as described in Methods. Histograms illustrate representative data and bar graphs show the mean+/−SEM for three independent experiments.\n(§4) Flow Cytometric Assays. Analyses were performed using a FACScalibur flow cytometer (BD Biosciences, Mountain View, Calif.) and FlowJo software (Tree Star, Inc., Ashland, Oreg.). Cells were treated as indicated in the figures and in the Brief Description of the Drawings. Cells were harvested by using TrypLE Cell Dissociation Reagent (Life Technologies). For cell death analyses, cells (adherent and detached cells) were stained with annexin-V-FITC and propidium iodide (PI) using the Apoptosis Detection Kit (BD Biosciences, San Jose, Calif.), according to the manufacturer's instructions. For cell-cycle distribution, cells were fixed, and stained with PI using the Cycle Test Plus kit (Becton Dickinson, Franklin Lakes, N.J.). For detection of γ-H2AX, cells were washed with PBS and fixed in 4% paraformaldehyde in PBS for 10 min at 37° C. Cells were then permeabilized in 90% methanol for 30 min on ice, blocked in 2% BSA (w/v in PBS) for 1 h, and incubated with γ-H2AX antibody or rabbit IgG isotype control (Santa Cruz, sc-2027) (0.3 μg/mL in 1% BSA) for 1 h. […] Cells were then washed twice with PBS, re-suspended at a density of 1×10^6 cells/mL in PBS and analyzed by flow cytometry."}, "A549 cells [5]": {"tested_on": "A549 cells", "assay": "Carboxy-H2DCFDA ROS detection, flow cytometry", "format": "cell-based, human", "conditions": "A549, 2 μM, 8 h", "protocol": "as §3, §4"}, "U937 cells [6]": {"tested_on": "U937 cells", "assay": "Carboxy-H2DCFDA ROS detection, flow cytometry", "format": "cell-based, human", "conditions": "U937, 1 μM, 8 h", "protocol": "as §3, §4"}, "Hs27 cells [7]": {"tested_on": "Hs27 cells", "assay": "MitoSOX Red mitochondrial superoxide, flow cytometry", "format": "cell-based, human", "conditions": "Hs27, 1 μM, 8 h", "protocol": "as §3, §4"}, "A549 cells [8]": {"tested_on": "A549 cells", "assay": "MitoSOX Red mitochondrial superoxide, flow cytometry", "format": "cell-based, human", "conditions": "A549, 2 μM, 8 h", "protocol": "as §3, §4"}, "U937 cells [9]": {"tested_on": "U937 cells", "assay": "MitoSOX Red mitochondrial superoxide, flow cytometry", "format": "cell-based, human", "conditions": "U937, 1 μM, 8 h", "protocol": "as §3, §4"}, "recombinant human DNMT1": {"target": "recombinant human DNMT1 (Homo sapiens, UniProt P26358)", "sequence (P26358 whole entry)": "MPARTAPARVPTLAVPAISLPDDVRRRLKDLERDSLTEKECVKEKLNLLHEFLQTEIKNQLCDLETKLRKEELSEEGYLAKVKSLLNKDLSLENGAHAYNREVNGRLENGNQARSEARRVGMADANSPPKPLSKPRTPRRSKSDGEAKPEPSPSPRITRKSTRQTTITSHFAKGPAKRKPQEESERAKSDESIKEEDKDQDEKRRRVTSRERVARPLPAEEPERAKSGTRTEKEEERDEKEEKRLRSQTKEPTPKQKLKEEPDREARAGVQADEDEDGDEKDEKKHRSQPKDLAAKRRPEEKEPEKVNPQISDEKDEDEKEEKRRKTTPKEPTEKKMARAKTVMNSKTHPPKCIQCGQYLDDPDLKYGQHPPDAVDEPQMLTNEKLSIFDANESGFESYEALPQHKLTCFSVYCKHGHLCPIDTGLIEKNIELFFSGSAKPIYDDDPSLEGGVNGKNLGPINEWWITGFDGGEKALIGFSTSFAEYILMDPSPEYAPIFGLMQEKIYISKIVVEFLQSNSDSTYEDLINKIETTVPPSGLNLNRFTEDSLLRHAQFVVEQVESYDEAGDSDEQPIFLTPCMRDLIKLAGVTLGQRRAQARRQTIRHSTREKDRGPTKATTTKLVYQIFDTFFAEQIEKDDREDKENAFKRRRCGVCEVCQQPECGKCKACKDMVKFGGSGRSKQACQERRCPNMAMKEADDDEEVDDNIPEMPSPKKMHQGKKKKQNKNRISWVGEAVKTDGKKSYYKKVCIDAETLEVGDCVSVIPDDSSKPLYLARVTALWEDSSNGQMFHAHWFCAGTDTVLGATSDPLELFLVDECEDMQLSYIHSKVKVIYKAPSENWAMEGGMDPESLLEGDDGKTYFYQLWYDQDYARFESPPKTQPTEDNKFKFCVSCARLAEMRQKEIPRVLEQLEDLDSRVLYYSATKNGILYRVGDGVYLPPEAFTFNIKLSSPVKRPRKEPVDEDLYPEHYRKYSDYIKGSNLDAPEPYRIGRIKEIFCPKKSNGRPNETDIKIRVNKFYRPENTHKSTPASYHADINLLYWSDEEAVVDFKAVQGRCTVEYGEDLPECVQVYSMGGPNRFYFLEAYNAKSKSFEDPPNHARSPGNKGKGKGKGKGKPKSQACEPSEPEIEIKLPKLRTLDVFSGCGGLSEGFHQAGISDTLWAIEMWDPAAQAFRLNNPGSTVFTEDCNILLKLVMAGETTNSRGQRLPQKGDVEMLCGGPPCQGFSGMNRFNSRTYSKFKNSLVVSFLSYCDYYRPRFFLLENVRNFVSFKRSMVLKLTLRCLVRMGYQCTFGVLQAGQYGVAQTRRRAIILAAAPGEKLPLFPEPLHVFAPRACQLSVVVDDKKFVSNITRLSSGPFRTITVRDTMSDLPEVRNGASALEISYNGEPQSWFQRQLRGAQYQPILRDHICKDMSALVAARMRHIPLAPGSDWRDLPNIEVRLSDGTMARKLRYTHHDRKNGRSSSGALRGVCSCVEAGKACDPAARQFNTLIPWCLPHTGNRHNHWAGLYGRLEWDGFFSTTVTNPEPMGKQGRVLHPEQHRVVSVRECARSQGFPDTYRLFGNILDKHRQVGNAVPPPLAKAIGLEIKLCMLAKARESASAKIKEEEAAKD", "assay": "DNMT1 activity assay", "format": "biochemical", "conditions": "recombinant human DNMT1 or nuclear extracts from treated cells", "text": "The assays use recombinant Human DNMT1 (FIG. 19A) or nuclear extracts prepared from cells treated with XB05 (BX11) or 5-Aza (5-azacytidine) (FIG. 19B)."}}, "data": [{"smiles": "CCCCCC(O)C#CC(F)(F)Br", "note": "(centres unmarked) [XB05]", "values": [{"measurement": "GI50", "setting": "DU145 cells", "result": "< 500", "unit": "nM"}, {"measurement": "increase in GSH", "setting": "Hs27 cells [1]", "result": "~2", "unit": "fold"}, {"measurement": "increase in GSH", "setting": "A549 cells [2]", "result": "approximately 1.3 fold"}, {"measurement": "change in reduced GSH", "setting": "U937 cells [3]", "result": "depletion of reduced GSH"}, {"measurement": "levels of ROS (DCF-positive viable cells)", "setting": "Hs27 cells [4]", "result": "elevated"}, {"measurement": "levels of ROS (DCF-positive viable cells)", "setting": "A549 cells [5]", "result": "elevated"}, {"measurement": "levels of ROS (DCF-positive viable cells)", "setting": "U937 cells [6]", "result": "elevated"}, {"measurement": "MitoSOX Red fluorescence vs vehicle", "setting": "Hs27 cells [7]", "result": "not in Hs27 non-malignant fibroblasts"}, {"measurement": "MitoSOX Red fluorescence vs vehicle", "setting": "A549 cells [8]", "result": "increase in MitoSOX™ Red fluorescence"}, {"measurement": "MitoSOX Red fluorescence vs vehicle", "setting": "U937 cells [9]", "result": "increase in MitoSOX™ Red fluorescence"}, {"measurement": "effect on DNMT1 activity", "setting": "recombinant human DNMT1", "result": "inhibitory effects"}]}]}
